Reference: ChEMBL document CHEMBL6103672, “Discovery of HMPL-306 (Ranosidenib), a New Potent and Selective Dual Inhibitor of Mutant IDH1 and 2 in Clinical Development for Cancer Treatment” (ACS Med Chem Lett, 2025)

Key:
[1] = molecular target: Isocitrate dehydrogenase [NADP], mitochondrial (Homo sapiens, UniProt P48735, R140Q); test: Inhibition of IDH2 R140Q mutant (unknown origin) using alpha-ketoglutarate as substrate preincubated with compound for 16 hrs followed by substrate addition and measured after 1 hr in presence of NADPH by fluorescence based analysis
[2] = Inhibition of IDH2 R140Q mutant in human U-87 MG cells incubated for 72 hrs by measuring 2-HG production by fluorescence based analysis; format: functional, cell-based, U-87MG ATCC
[3] = Inhibition of IDH1 R132H mutant in human U-87 MG cells incubated for 72 hrs by measuring 2-HG production by fluorescence based analysis; format: functional, cell-based, U-87MG ATCC
[4] = Apparent permeability across apical to basolateral side in human Caco-2 cells at 10 uM incubated for 1 hrs by LC-MS/MS analysis
[5] = Apparent permeability across basolateral to apical side in human Caco-2 cells at 10 uM incubated for 1 hrs by LC-MS/MS analysis
[6] = Metabolic stability in male SD rat liver microsomes assessed as parent compound remaining at 1 uM measured after 30 mins in presence of NADPH by LC-MS analysis; format: ADME, Microsome; conditions: Sprague-Dawley, read-out: Stability
[7] = Metabolic stability in male ICR mouse liver microsomes assessed as parent compound remaining at 1 uM measured after 30 mins in presence of NADPH by LC-MS analysis; format: ADME, Microsome; conditions: read-out: Stability

Isocitrate dehydrogenase [NADP], mitochondrial, sequence (P48735 40-452 R140Q limits assumed): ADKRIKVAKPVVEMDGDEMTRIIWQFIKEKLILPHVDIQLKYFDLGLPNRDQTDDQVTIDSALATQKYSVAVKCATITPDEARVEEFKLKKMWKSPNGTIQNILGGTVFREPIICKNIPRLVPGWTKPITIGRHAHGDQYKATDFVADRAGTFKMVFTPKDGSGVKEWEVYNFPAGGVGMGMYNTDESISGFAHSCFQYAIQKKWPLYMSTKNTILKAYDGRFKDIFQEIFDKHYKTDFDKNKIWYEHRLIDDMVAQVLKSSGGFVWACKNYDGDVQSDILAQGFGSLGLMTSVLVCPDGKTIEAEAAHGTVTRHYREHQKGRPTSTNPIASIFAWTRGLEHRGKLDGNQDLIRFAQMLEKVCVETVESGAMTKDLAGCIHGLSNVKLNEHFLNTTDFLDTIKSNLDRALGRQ

Row | Structure (SMILES) | IC50 [1] | IC50 ([2]; Homo sapiens, U-87 MG, 72 h) | other results
1 | COC1C=C(c2nc(N[C@H](C)C(F)(F)F)nc(N[C@H](C)C(F)(F)F)n2)CCC1 (stereo partly specified) | 1030 nM | 2390 nM | –
2 | CC(C)Nc1nc(N[C@H](C)C(F)(F)F)nc(C2=C[C@@H](O)CCC2)n1 | 16 nM | 67 nM | IC50 ([3]; Homo sapiens, U-87 MG, 72 h): 372 nM; Papp A→B at 1 h, 10 µM [4]: 55.4 ×10⁻⁶ cm/s; Papp B→A at 1 h, 10 µM [5]: 34.1 ×10⁻⁶ cm/s; remaining at 0.5 h, 1 µM [6]: 65%; remaining at 0.5 h, 1 µM [7]: 48.1%
3 | C=C(C)c1nc(NC(C)C)nc(N[C@H](C)C(F)(F)F)n1 | 710 nM | > 10000 nM | –
4 | CNC1C=C(c2nc(N[C@H](C)C(F)(F)F)nc(N[C@H](C)C(F)(F)F)n2)CCC1 (stereo partly specified) | > 3000 nM | – | –
5 | CC(C)Nc1nc(N[C@H](C)C(F)(F)F)nc(C2=CCCC2)n1 | 83 nM | 1420 nM | –
6 | CC(C)Nc1nc(N[C@H](C)C(F)(F)F)nc(C2=CCCCC2)n1 | 21 nM | 413 nM | Papp A→B at 1 h, 10 µM [4]: 0.9 ×10⁻⁶ cm/s; Papp B→A at 1 h, 10 µM [5]: 3.3 ×10⁻⁶ cm/s; remaining at 0.5 h, 1 µM [6]: 13.6%; remaining at 0.5 h, 1 µM [7]: 12.5%
7 | CC(C)Nc1nc(N[C@H](C)C(F)(F)F)nc(C2=CC(F)(F)CCC2)n1 | 23 nM | 504 nM | Papp A→B at 1 h, 10 µM [4]: 2.2 ×10⁻⁶ cm/s; Papp B→A at 1 h, 10 µM [5]: 4 ×10⁻⁶ cm/s
8 | CC(C)Nc1nc(N[C@H](C)C(F)(F)F)nc(C2=C[C@H](O)CCC2)n1 | 794 nM | 999 nM | –
9 | CC(C)Nc1nc(N[C@H](C)C(F)(F)F)nc(C2(c3ccccc3)CC2)n1 | 253 nM | – | –
10 | CC(C)Nc1nc(N[C@H](C)C(F)(F)F)nc(C2=CCOCC2)n1 | 2340 nM | – | –
11 | CC(C)Nc1nc(N[C@H](C)C(F)(F)F)nc(N2CCCCC2)n1 | > 3000 nM | – | –
12 | CC(C)Nc1nc(N[C@H](C)C(F)(F)F)nc(C2=CCN(C)CC2)n1 | > 3000 nM | – | –
13 | C[C@H](Nc1nc(N[C@H](C)C(F)(F)F)nc(C2=C(F)C(O)C(F)(F)CC2)n1)C(F)(F)F (stereo partly specified) | 166 nM | 156 nM | IC50 ([3]; Homo sapiens, U-87 MG, 72 h): 1030 nM
14 | C[C@@H](Nc1nc(N[C@H](C)C(F)(F)F)nc(C2=C(F)[C@H](O)CCC2)n1)C(F)(F)F | – | 1020 nM | IC50 ([3]; Homo sapiens, U-87 MG, 72 h): 3260 nM; Papp A→B at 1 h, 10 µM [4]: 60 ×10⁻⁶ cm/s; Papp B→A at 1 h, 10 µM [5]: 26 ×10⁻⁶ cm/s
15 | C[C@@H](Nc1nc(NCC(C)(C)O)nc(C2=CC(O)CCC2)n1)C(F)(F)F (mixture of isomers) | 1200 nM | 2800 nM | –
16 | CC(C)Nc1nc(N[C@H](C)C(F)(F)F)nc(C2=CCCC(F)C2)n1 (mixture of isomers) | 120 nM | – | –
17 | C[C@@H](Nc1nc(NC2CCCCC2)nc(C2=CC(O)CCC2)n1)C(F)(F)F (mixture of isomers) | 43 nM | 296 nM | –
18 | C[C@@H](Nc1nc(N[C@H](C)C(F)(F)F)nc(C2=C(F)C(O)C3(CC2)CC3)n1)C(F)(F)F (mixture of isomers) | 222 nM | 707 nM | IC50 ([3]; Homo sapiens, U-87 MG, 72 h): 3230 nM
19 | C[C@@H](Nc1nc(N[C@H](C)C(F)(F)F)nc(C2=C(F)C(O)C(F)(F)CC2)n1)C(F)(F)F (mixture of isomers) | 28 nM | – | IC50 ([2]; u-87mg atcc): 94 nM; IC50 ([3]; u-87mg atcc): 210 nM; Papp A→B at 1 h, 10 µM [4]: 50.4 ×10⁻⁶ cm/s; Papp B→A at 1 h, 10 µM [5]: 25.1 ×10⁻⁶ cm/s; remaining at 0.5 h, 1 µM [6]: 102%; remaining at 0.5 h, 1 µM [7]: 95.2%
20 | CC(C)Nc1nc(N[C@H](C)C(F)(F)F)nc(C2=CCCC(O)C2)n1 (mixture of isomers) | 1780 nM | – | –

Row | Structure (SMILES) | IC50 [1] | IC50 ([2]; Homo sapiens, U-87 MG, 72 h) | other results
21 | C[C@@H](Nc1nc(NC2CC2)nc(C2=CC(O)CCC2)n1)C(F)(F)F (mixture of isomers) | 257 nM | 171 nM | –
22 | C[C@@H](Nc1nc(NC(C)(C)C)nc(C2=CC(O)CCC2)n1)C(F)(F)F (mixture of isomers) | 111 nM | 319 nM | –
23 | CC(C)Nc1nc(N[C@H](C)C(F)(F)F)nc(C2=CC(O)CCC2)n1 (mixture of isomers) | 41 nM | 137 nM | IC50 ([3]; Homo sapiens, U-87 MG, 72 h): 658 nM; Papp A→B at 1 h, 10 µM [4]: 53.3 ×10⁻⁶ cm/s; Papp B→A at 1 h, 10 µM [5]: 34.6 ×10⁻⁶ cm/s; remaining at 0.5 h, 1 µM [6]: 74.1%; remaining at 0.5 h, 1 µM [7]: 44.1%
24 | C[C@@H](Nc1nc(N[C@H](C)C(F)(F)F)nc(C2=CC(O)CCC2)n1)C(F)(F)F (mixture of isomers) | 35 nM | 86 nM | IC50 ([3]; Homo sapiens, U-87 MG, 72 h): 434 nM; Papp A→B at 1 h, 10 µM [4]: 44.9 ×10⁻⁶ cm/s; Papp B→A at 1 h, 10 µM [5]: 28.6 ×10⁻⁶ cm/s; remaining at 0.5 h, 1 µM [6]: 79.8%; remaining at 0.5 h, 1 µM [7]: 58.2%
25 | CC(C)Nc1nc(N[C@H](C)C(F)(F)F)nc(C2=CC(O)CC2)n1 (mixture of isomers) | 85 nM | 1670 nM | –
26 | C[C@@H](Nc1nc(N[C@H](C)C(F)(F)F)nc(C2=C(F)C(O)CCC2)n1)C(F)(F)F (mixture of isomers) | 54 nM | 137 nM | IC50 ([3]; Homo sapiens, U-87 MG, 72 h): 365 nM; Papp A→B at 1 h, 10 µM [4]: 68.6 ×10⁻⁶ cm/s; Papp B→A at 1 h, 10 µM [5]: 15.5 ×10⁻⁶ cm/s; remaining at 0.5 h, 1 µM [6]: 99%; remaining at 0.5 h, 1 µM [7]: 83.8%
27 | CC(C)Nc1nc(N[C@H](C)C(F)(F)F)nc(C2=CC(F)CCC2)n1 (mixture of isomers) | 43 nM | 181 nM | Papp A→B at 1 h, 10 µM [4]: 5.1 ×10⁻⁶ cm/s; Papp B→A at 1 h, 10 µM [5]: 5.2 ×10⁻⁶ cm/s; remaining at 0.5 h, 1 µM [6]: 25.1%; remaining at 0.5 h, 1 µM [7]: 16.8%
28 | CC(C)Nc1nc(N[C@H](C)C(F)(F)F)nc(C2=CCC(F)CC2)n1 (mixture of isomers) | 162 nM | – | –
29 | CC(C)Nc1nc(N[C@H](C)C(F)(F)F)nc(C(C)c2ccccc2)n1 (mixture of isomers) | 337 nM | – | –
30 | CC(C)Nc1nc(N[C@H](C)C(F)(F)F)nc(C2=CCC(O)CC2)n1 (mixture of isomers) | > 3000 nM | – | –
31 | CC(C)C(=O)Nc1nc(N[C@H](C)C(F)(F)F)nc(C2=CC(O)CCC2)n1 (mixture of isomers) | 262 nM | 1540 nM | –
32 | CC(C)CNc1nc(N[C@H](C)C(F)(F)F)nc(C2=CC(O)CCC2)n1 (mixture of isomers) | 21 nM | 100 nM | IC50 ([3]; Homo sapiens, U-87 MG, 72 h): 2470 nM
33 | CCCNc1nc(N[C@H](C)C(F)(F)F)nc(C2=CC(O)CCC2)n1 (mixture of isomers) | 35 nM | 174 nM | –
34 | C[C@H](Nc1nc(N[C@@H](C)C(F)(F)F)nc(C2=C(F)C(O)C(F)(F)CC2)n1)C(F)(F)F (mixture of isomers) | 309 nM | 174 nM | IC50 ([3]; Homo sapiens, U-87 MG, 72 h): 1320 nM
35 | C[C@@H](Nc1nc(NC2CCCC2)nc(C2=CC(O)CCC2)n1)C(F)(F)F (mixture of isomers) | 33 nM | 67 nM | IC50 ([3]; Homo sapiens, U-87 MG, 72 h): 733 nM; Papp A→B at 1 h, 10 µM [4]: 30.9 ×10⁻⁶ cm/s; Papp B→A at 1 h, 10 µM [5]: 13.6 ×10⁻⁶ cm/s
36 | C[C@@H](Nc1nc(NC2CCC2)nc(C2=CC(O)CCC2)n1)C(F)(F)F (mixture of isomers) | 39 nM | 92 nM | Papp A→B at 1 h, 10 µM [4]: 41.4 ×10⁻⁶ cm/s; Papp B→A at 1 h, 10 µM [5]: 27.5 ×10⁻⁶ cm/s; remaining at 0.5 h, 1 µM [6]: 34%; remaining at 0.5 h, 1 µM [7]: 15.9%
37 | CCNc1nc(N[C@H](C)C(F)(F)F)nc(C2=CC(O)CCC2)n1 (mixture of isomers) | 68 nM | 336 nM | –
38 | COCCNc1nc(N[C@H](C)C(F)(F)F)nc(C2=CC(O)CCC2)n1 (mixture of isomers) | > 3000 nM | – | –
39 | C[C@@H](Nc1nc(N[C@H](C)C(F)(F)F)nc(C2=C(F)C(O)C(F)(F)CC2)n1)C(F)(F)F (stereo in doubt; 42) | 145 nM | – | IC50 ([2]; u-87mg atcc): 845 nM; IC50 ([3]; u-87mg atcc): 1890 nM
